Activity calls are given as the source filed them. The calls are words filed in the database; no cut-off is given here. Where a SMILES comes first, the peptide text is derived from it. Bridges are numbered along the chain shown (N, C = ends). [ ]: non-standard residue; d: D form. The star is where a group is joined. X1 = CC[C@H](C)CCCCC(=O)*; Dab = NCC[C@H](N)C(=O)O

Data set [1] relates to Klebsiella pneumoniae. Put plainly: Antibacterial activity against Klebsiella pneumoniae ATCC 700603 incubated with 0.2 to 0.02 ug/ml trypsin for 6 hrs followed by bacterial addition and measured after 18 hrs by CLSI based broth dilution method. The note with it: dose 0.2-0.02 µg/ml, time 23.0 hrs. The data set is classed as functional, organism-based. For orientation: Dilution methods test growth across graded concentrations, often in twofold steps.

Data set [2] deals with Klebsiella pneumoniae. Put plainly: Disruption of membrane integrity in Klebsiella pneumoniae ATCC 700603 assessed as content leakage at 1 times MIC incubated for 0.5 to 2 hrs by scanning electron microscopy. The data set is classed as functional, organism-based. The note with it: time 0.5-2 hrs.
For data set [3], the system named is Klebsiella pneumoniae. Kind of data set: Disruption of membrane integrity in Klebsiella pneumoniae ATCC 700603 assessed as membrane blebbing at 1 times MIC incubated for 0.5 to 2 hrs by scanning electron microscopy. Type of data set: functional, organism-based. The note with it: time 0.5-2 hrs.
Data set [4] concerns Klebsiella pneumoniae. Put plainly: Antibacterial activity against Klebsiella pneumoniae ATCC 700603 incubated with 0.2 to 0.02 ug/ml chymotrypsin for 6 hrs followed by bacterial addition and measured after 18 hrs by CLSI based broth dilution method. Type of data set: functional, organism-based. The conditions noted are these: dose 0.2-0.02 µg/ml, time 23.0 hrs.
A short description of data set [5]: Induction of renal interstitial cell hemorrhage in BALB/C mouse at 82 mg/kg, ip administered as single dose by hematoxylin and eosin staining based assay. The note with it: in vivo. The data set is classed as organism-based.
Data set [6] is described as follows: Toxicity in BALB/C mouse assessed as effect on kidney at 19 mg/kg, ip administered as single dose by hematoxylin and eosin staining based assay. The data set is classed as organism-based. The note with it: in vivo.
For data set [7], the system named is Pseudomonas aeruginosa. Put plainly: Synergistic antibacterial activity against Pseudomonas aeruginosa ATCC 27853 at 2 times MIC incubated for 18 to 24 hrs in presence of 2 times MIC of polymyxin B by broth microdilution assay based checkerboard assay. Type of data set: functional. The conditions noted are these: time 18-24 hrs.
Data set [8] deals with Klebsiella pneumoniae. Put plainly: Synergistic antibacterial activity against Klebsiella pneumoniae ATCC 700603 at 2 times MIC incubated for 18 to 24 hrs in presence of 2 times MIC of polymyxin B by broth microdilution assay based checkerboard assay. The data set is classed as functional. The conditions noted are these: time 18-24 hrs.
Data set [9] relates to Klebsiella pneumoniae. Kind of data set: Antibacterial activity against Klebsiella pneumoniae ATCC 700603 infected in BALB/C mouse assessed as alveolar expansion at 5 mg/kg, ip by hematoxylin and eosin staining based assay. The data set is classed as functional, organism-based.
Data set [10] deals with Cell membrane. Put plainly: Induction of outer membrane permeabilization in Klebsiella pneumoniae ATCC 700603 at 2 to 4 MIC by N-phenylnaphthylamine dye based fluorescent method. The conditions noted are these: Klebsiella pneumoniae 700603, 2 to 4 M. Type of data set: subcellular.
Data set [11] is described as follows: Toxicity in BALB/C mouse assessed as effect on liver at 19 mg/kg, ip administered as single dose by hematoxylin and eosin staining based assay. The conditions noted are these: in vivo. Type of data set: organism-based.
In data set [12] the test system is Escherichia coli. Kind of data set: Synergistic antibacterial activity against Escherichia coli ATCC 25922 at 2 times MIC incubated for 18 to 24 hrs in presence of 2 times MIC of gentamycin by broth microdilution assay based checkerboard assay. The data set is classed as functional. The note with it: time 18-24 hrs.
Data set [13] has as its system HK-2. Kind of data set: Cytotoxicity against human HK2 cells incubated for 12 hrs by MTT assay. The data set is classed as cell-based. The note with it: HK-2, 12 h.
Data set [14] has as its system Pseudomonas aeruginosa. Put plainly: Antibacterial activity against Pseudomonas aeruginosa ATCC 27853 at sub-MIC level after 15 passages by broth microdilution assay. The data set is classed as functional, organism-based.
Data set [15] concerns Staphylococcus aureus. Kind of data set: Antibacterial activity against Staphylococcus aureus ATCC 25923 incubated with 0.2 to 0.02 ug/ml trypsin for 6 hrs followed by bacterial addition and measured after 18 hrs by CLSI based broth dilution method. Type of data set: functional, organism-based. The conditions noted are these: dose 0.2-0.02 µg/ml, time 23.0 hrs.
Data set [16] can be described thus: Toxicity in BALB/C mouse assessed as effect on heart at 19 mg/kg, ip administered as single dose by hematoxylin and eosin staining based assay. Type of data set: organism-based. The conditions noted are these: in vivo.
The subject of data set [17] is Escherichia coli. Put plainly: Synergistic antibacterial activity against Escherichia coli ATCC 25922 at 2 times MIC incubated for 18 to 24 hrs in presence of 2 times MIC of polymyxin B by broth microdilution assay based checkerboard assay. The data set is classed as functional. The note with it: time 18-24 hrs.
Data set [18] is described as follows: Induction of inflammation in BALB/C mouse at 82 mg/kg, ip administered as single dose by hematoxylin and eosin staining based assay. Type of data set: organism-based. The conditions noted are these: in vivo.
For data set [19], the system named is Klebsiella pneumoniae. Put plainly: Disruption of membrane integrity in Klebsiella pneumoniae ATCC 700603 assessed as pore formation at 1 times MIC incubated for 0.5 to 2 hrs by scanning electron microscopy. The data set is classed as functional, organism-based. The note with it: time 0.5-2 hrs.
Data set [20] is described as follows: Toxicity in BALB/C mouse assessed as mouse death at 15 to 25 mg/kg, ip measured after 24 hrs. Type of data set: organism-based. The conditions noted are these: in vivo, dose 15-25 mg/kg.
Data set [21] deals with Cell membrane. Kind of data set: Induction of outer membrane permeabilization in Klebsiella pneumoniae ATCC 700603 measured within 1 mins by N-phenylnaphthylamine dye based fluorescent method. The note with it: Klebsiella pneumoniae 700603. Type of data set: subcellular.
Data set [22] is described as follows: Stability in BALB/C mouse serum assessed as compound degradation time measured up to 1440 mins by HPLC analysis. The data set is classed as ADME, cell-free. The note with it: 24 h.
Data set [23] concerns Klebsiella pneumoniae. Put plainly: Antibacterial activity against Klebsiella pneumoniae ATCC 700603 infected in BALB/C mouse assessed as reduction in inflammatory response at 5 to 10 mg/kg, ip by hematoxylin and eosin staining based assay. The data set is classed as functional, organism-based. The note with it: dose 5-10 mg/kg.
Data set [24] relates to Staphylococcus aureus. Kind of data set: Antibacterial activity against Staphylococcus aureus ATCC 25923 incubated with 0.2 to 0.02 ug/ml chymotrypsin for 6 hrs followed by bacterial addition and measured after 18 hrs by CLSI based broth dilution method. Type of data set: functional, organism-based. The note with it: dose 0.2-0.02 µg/ml.
Data set [25] has as its system Staphylococcus aureus. Kind of data set: Disruption of membrane integrity in Staphylococcus aureus ATCC 25923 assessed as content leakage at 1 times MIC incubated for 0.5 to 2 hrs by scanning electron microscopy. The data set is classed as functional, organism-based. The note with it: time 0.5-2 hrs.
Data set [26] has as its system Staphylococcus aureus. Put plainly: Disruption of membrane integrity in Staphylococcus aureus ATCC 25923 assessed as pore formation at 1 times MIC incubated for 0.5 to 2 hrs by scanning electron microscopy. Type of data set: functional, organism-based. The note with it: time 0.5-2 hrs.
Data set [27] deals with Staphylococcus aureus. Put plainly: Drug localization in surface of Staphylococcus aureus ATCC 25923 at 2 times MIC incubated for 30 mins using ACD-labeled compound by PI-staining based laser scanning confocal microscopic analysis. The data set is classed as functional, organism-based.
For data set [28], the system named is Klebsiella pneumoniae. Put plainly: Antibacterial activity against Klebsiella pneumoniae ATCC 700603 infected in BALB/C mouse assessed as reduction in alveolar shrinkage at 5 mg/kg, ip by hematoxylin and eosin staining based assay. Type of data set: functional, organism-based.
Data set [29] deals with Escherichia coli. Put plainly: Antibiofilm activity against Escherichia coli ATCC 25922 at 4 times MIC incubated for 24 hrs by crystal violet staining based assay. Type of data set: functional, organism-based.
Data set [30] deals with Cell membrane. Kind of data set: Disruption of membrane integrity in Klebsiella pneumoniae ATCC 700603 assessed as membrane swelling at 1 times MIC incubated for 0.5 to 2 hrs by scanning electron microscopy. Type of data set: subcellular. The conditions noted are these: Klebsiella pneumoniae 700603, time 0.5-2 hrs.
Data set [31] relates to Klebsiella pneumoniae. Kind of data set: Antibacterial activity against Klebsiella pneumoniae ATCC 700603 incubated with 2000 ug/ml chymotrypsin for 6 hrs followed by bacterial addition and measured after 18 hrs by CLSI based broth dilution method. The data set is classed as functional, organism-based. The note with it: dose 2000.0 µg/ml, time 23.0 hrs.
Data set [32] has as its system Klebsiella pneumoniae. Put plainly: Antibiofilm activity against Klebsiella pneumoniae ATCC 700603 at 2 to 4 times MIC incubated for 24 hrs by crystal violet staining based assay. The data set is classed as functional, organism-based.
Data set [33] has as its system Staphylococcus aureus. Kind of data set: Antibacterial activity against Staphylococcus aureus ATCC 25923 incubated with 2000 ug/ml chymotrypsin for 6 hrs followed by bacterial addition and measured after 18 hrs by CLSI based broth dilution method. The note with it: dose 2000.0 µg/ml, time 23.0 hrs. The data set is classed as functional, organism-based.
For data set [34], the system named is Klebsiella pneumoniae. Put plainly: Reduction in inflammatory cell infiltration in lung of BALB/C mouse infected with Klebsiella pneumoniae ATCC 700603 at 5 mg/kg, ip by hematoxylin and eosin staining based assay. Type of data set: functional, organism-based.
A short description of data set [35]: Toxicity in BALB/C mouse infected with Klebsiella pneumoniae ATCC 700603 assessed as change in liver color at 5 mg/kg, ip by hematoxylin and eosin staining based assay. Type of data set: organism-based. The note with it: in vivo.

A word on the IC50: it is the concentration at which inhibition is half-maximal. A high value points to a need for much substance. On to `NCCCC[C@H](NC(=O)[C@H](CCCCN)NC(=O)[C@H](Cc1c[nH]c2ccccc12)NC(=O)[C@H](CCCCN)NC(=O)[C@H](CCCCN)NC(=O)[C@H](Cc1c[nH]c2ccccc12)NC(=O)[C@H](Cc1c[nH]c2ccccc12)NC(=O)[C@@H](N)CCCCN)C(=O)N[C@@H](Cc1c[nH]c2ccccc12)C(=O)N[C@@H](Cc1c[nH]c2ccccc12)C(N)=O` (H-KWWKKWKKWW-NH2), for which the outcome in [1], in data set [2], in data set [3], in [4], in data set [9] and in data set [10] was Active. In addition, the outcome in data set [14], in [15], in data set [19], in [23], in [25] and in data set [26] was Active. For the same compound, in data set [27], the result was Active. In addition, the Activity entry in [5], in [6], in [11], in data set [16], in [18] and in data set [20] was “Toxic” each time. Besides, the Activity entry in data set [21] is “Dose-Dependent Effect”. In addition, the FIC is on record as 0.5625 in data set [7], 0.3125 in data set [8], 0.5625 in data set [12] and 0.3125 in data set [17]. Half-maximal inhibition in data set [13] (IC50) was put at 63.5 µM. Besides, the Time in [22] is on record as 11.84 min. The result in [24] was inactive.
For the compound `CC[C@H](C)CCCCC(=O)N[C@@H](CCN)C(=O)N[C@H](C(=O)N[C@@H](CCN)C(=O)N[C@H]1CCNC(=O)[C@H]([C@@H](C)O)NC(=O)[C@H](CCN)NC(=O)[C@H](CCN)NC(=O)[C@H](CC(C)C)NC(=O)[C@@H](Cc2ccccc2)NC(=O)[C@H](CCN)NC1=O)[C@@H](C)O` (X1-[Dab]T[Dab][Dab][Dab][dF]L[Dab][Dab]T; lactam 4-C), the result in data set [28] and in data set [34] was inactive. The result in data set [29], in data set [30], in data set [31], in data set [32] and in [33] was Active. Moreover, in data set [35], the Activity result is given as “Toxic”.
